Laboratory results: patent publication US20260335323A1, “CHIMERIC MOLECULE” (UCL Business Ltd, priority 2023, published 2026)

What was measured:
ULK1 = molecular target: T1, ULK1 (Homo sapiens, UniProt O75385); assay: in vitro kinase assay measuring ATP consumption; type: biochemical; conditions: versus BL-918
T1 sequence (O75385 1-1050): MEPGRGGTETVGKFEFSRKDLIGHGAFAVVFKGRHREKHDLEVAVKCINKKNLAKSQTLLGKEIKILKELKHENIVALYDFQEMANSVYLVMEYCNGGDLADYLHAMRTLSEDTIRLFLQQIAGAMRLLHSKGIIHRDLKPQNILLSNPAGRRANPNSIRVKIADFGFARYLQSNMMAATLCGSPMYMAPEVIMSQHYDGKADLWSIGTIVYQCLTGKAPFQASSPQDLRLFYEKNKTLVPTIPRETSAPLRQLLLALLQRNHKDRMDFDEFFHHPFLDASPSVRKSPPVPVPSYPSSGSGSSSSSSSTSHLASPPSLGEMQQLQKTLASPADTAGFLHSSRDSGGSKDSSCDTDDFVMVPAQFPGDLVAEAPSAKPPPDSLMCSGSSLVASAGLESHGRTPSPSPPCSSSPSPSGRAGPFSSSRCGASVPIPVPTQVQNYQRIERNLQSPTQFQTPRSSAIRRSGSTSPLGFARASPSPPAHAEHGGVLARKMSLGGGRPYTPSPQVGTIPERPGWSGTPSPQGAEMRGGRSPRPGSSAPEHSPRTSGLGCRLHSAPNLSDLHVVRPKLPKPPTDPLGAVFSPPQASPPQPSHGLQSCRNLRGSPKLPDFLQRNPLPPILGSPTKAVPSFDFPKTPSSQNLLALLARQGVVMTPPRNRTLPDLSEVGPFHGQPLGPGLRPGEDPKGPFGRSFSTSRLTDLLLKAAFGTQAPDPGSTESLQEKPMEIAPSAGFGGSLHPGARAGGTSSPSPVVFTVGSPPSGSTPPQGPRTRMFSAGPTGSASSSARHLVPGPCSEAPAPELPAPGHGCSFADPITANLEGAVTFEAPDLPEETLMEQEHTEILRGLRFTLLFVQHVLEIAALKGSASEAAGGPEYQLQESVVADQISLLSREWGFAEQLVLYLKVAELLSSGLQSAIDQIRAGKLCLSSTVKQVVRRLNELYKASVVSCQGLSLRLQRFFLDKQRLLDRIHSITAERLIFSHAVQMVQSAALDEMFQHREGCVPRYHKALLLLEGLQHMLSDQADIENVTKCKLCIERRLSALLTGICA
Excerpt: Next, we designed a chimeric compound composed of a BL-918 derivative (referred to as NZ-60 herein) as our autophagy activator linked to the TSPO ligand as our targeting warhead to the outer mitochondrial membrane, utilising Huisgen-Sharpless click chemistry for the key linkage step^38-41. We designed a chemical synthesis route in 9 steps to produce two ULKTACs, NZ-65 and NZ-66. NZ-65 employs a polyethylene glycol (PEG) linker while NZ-66 uses a six carbon hexane linker (FIG. 3A). The resulting molecules were >99% pure as verified by LCMS. […] Importantly, key interactions shown to be necessary for the activation of ULK1 in its kinase domain, namely, Arg18, Lys50, Asn86 and Tyr89^8, appear to be maintained.

LC3 = assay: ATP5a/LC3 co-localisation immunofluorescence in MEF WT; type: cell-based, mouse
Procedure: FIG. 6. ULKTACs rely on ULK1 for the redirection of autophagy components to mitochondria and subsequent mitophagic degradation (A) Western blot of mouse embryonic fibroblasts (MEF) WT and MEF ULK1/2^−/− treated with 1 mM ULKTACs, 5 mM CCCP or both and probed for ULK1, Mfn2 and Actin—quantification of the relative intensity of Mfn2 shown in (B), normalised to Actin. Representative immunofluorescence of MEF WT (C) and MEF ULK1/2^−/− (D) treated with 5 mM CCCP, 1 mM ULKTACs or both and immunostained for Alexa 488 ATP5a and Alexa 647 LC3B. Quantification of the colocalised LC3 to ATP5a spot area shown in WT vs ULK1/2^−/− treated MEF cells shown in (E). Data shown are mean±SEM, n=3, *p<0.05, ** p<0.01, *** p<0.001, Two-way ANOVA with Tukey's multiple comparisons test.
For TOM20/ULK1 immunofluorescence, cells were seeded in a 384 well PerkinElmer CellCarrier Ultra plate 24 hours prior to treatment with compounds. Cells were treated for 18 hours after which they were fixed with 4% paraformaldehyde (PFA) in phosphate buffered saline (PBS) and blocked with 10% FBS and 0.1% Triton in PBS. Plates were incubated at 4° C. overnight, with 1:400 mouse anti-TOM20 (Santa Cruz, #sc-17764) and 1:400 rabbit anti-ULK1 (Cell Signalling Technologies, #0854). […]

Structure (SMILES): O=C(Nc1cc(C(F)(F)F)cc(C(F)(F)F)c1)N[C@@H](C(=O)Nc1ccc(F)cc1F)c1ccc(OCc2cn(CCOCCOCCNC(=O)C(=O)c3c(-c4ccccc4)[nH]c4ccccc34)nn2)cc1 [NZ-65, (R)-2-(3-(3,5-bis(trifluoromethyl)phenyl)ureido)-N-(2,4-difluorophenyl)-2-(4-((1-(2-(2-(2-(2-oxo-2-(2-phenyl-1H-indol-3-yl)acetamido)ethoxy)ethoxy)ethyl)-1H-1,2,3-triazol-4-yl)methoxy)phenyl) acetamide]
- activation of ULK1 vs BL-918 (ULK1): comparable activity
- co-localisation of ATP5a with LC3 (LC3): increase in co-localisation

Structure (SMILES): O=C(Nc1cc(C(F)(F)F)cc(C(F)(F)F)c1)N[C@@H](C(=O)Nc1ccc(F)cc1F)c1ccc(OCc2cn(CCCCCCNC(=O)C(=O)c3c(-c4ccccc4)[nH]c4ccccc34)nn2)cc1 [NZ-66, (R)-2-(3-(3,5-bis(trifluoromethyl)phenyl)ureido)-N-(2,4-difluorophenyl)-2-(4-((1-(6-(2-oxo-2-(2-phenyl-1H-indol-3-yl)acetamido)hexyl)-1H-1,2,3-triazol-4-yl)methoxy)phenyl) acetamide]
- activation of ULK1 vs BL-918 (ULK1): comparable activity
- co-localisation of ATP5a with LC3 (LC3): increase in co-localisation
